Assays:
Assay in all cases: relative viability (nuclei count vs DMSO), 5 days (fraction); higher = more cells survive
[1] = test system: 201T
In short: (§1)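 A single step with final 0.05% Triton X-100, 1% formaldehyde and 1 ug/ml Hoechst fixed the cells and stained nuclei 5 days after treatment. Lung cancer cell lines in 1536-well plates had been treated by pin tool the day after seeding with one drug alone or a fixed anchor-drug dose plus five library-drug doses (not always all listed) in √10 steps, and nuclei were counted on 4× images. Relative viability is the ratio of nuclei in treated wells to nuclei in vehicle wells, taken as the median of duplicate plates.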

[2] = test system: COR-L 105
In short: as §1

[3] = test system: ChaGo-K-1
In short: as §1

[4] = test system: EPLC-272H
In short: as §1

[5] = test system: H3255
In short: as §1

[6] = test system: HCC-78
In short: as §1

[7] = test system: HCC-827
In short: as §1

[8] = test system: LC-2-ad
In short: as §1

[9] = test system: LCLC-97TM1
In short: as §1

[10] = test system: NCI-H1666
In short: as §1

[11] = test system: NCI-H1915
In short: as §1

[12] = test system: NCI-H2087
In short: as §1

[13] = test system: NCI-H2126
In short: as §1

[14] = test system: NCI-H2347
In short: as §1

[15] = test system: NCI-H23
In short: as §1

[16] = test system: NCI-H2405
In short: as §1

[17] = test system: NCI-H322M
In short: as §1

[18] = test system: NCI-H520
In short: as §1

[19] = test system: NCI-H647
In short: as §1

[20] = test system: NCI-H650
In short: as §1

[21] = test system: NCI-H661
In short: as §1

[22] = test system: PC-14
In short: as §1

[23] = test system: RERF-LC-KJ
In short: as §1

CC(C)Oc1cc(Nc2nc(N[C@@H](C)c3ccc(F)cn3)ncc2Cl)n[nH]1 [AZ23] + COc1cc2c(Oc3ccc(NC(=O)C4(C(=O)Nc5ccc(F)cc5)CC4)cc3F)ccnc2cc1OCCCN1CCOCC1 [Foretinib] (partner 0.25 µM)
relative viability ([1]; first compound 0.03162 µM): 1.28 | relative viability ([1]; first compound 0.3162 µM): 1.13 | relative viability ([2]; first compound 0.01 µM): 1.07 | relative viability ([2]; first compound 0.03162 µM): 1.26 | relative viability ([2]; first compound 0.3162 µM): 0.842 | relative viability ([3]; first compound 0.01 µM): 1.17 | relative viability ([3]; first compound 0.03162 µM): 0.906 | relative viability ([3]; first compound 0.3162 µM): 0.95 | relative viability ([4]; first compound 0.01 µM): 0.77 | relative viability ([4]; first compound 0.03162 µM): 0.74 | relative viability ([4]; first compound 0.3162 µM): 0.676 | relative viability ([5]; first compound 0.01 µM): 0.881 | relative viability ([5]; first compound 0.03162 µM): 0.764 | relative viability ([5]; first compound 0.3162 µM): 0.915 | relative viability ([6]; first compound 0.01 µM): 0.588 | relative viability ([6]; first compound 0.03162 µM): 0.52 | relative viability ([6]; first compound 0.3162 µM): 0.547 | relative viability ([7]; first compound 0.01 µM): 1.05 | relative viability ([7]; first compound 0.03162 µM): 1.09 | relative viability ([7]; first compound 0.3162 µM): 1.11 | relative viability ([8]; first compound 0.01 µM): 1.07 | relative viability ([8]; first compound 0.03162 µM): 0.993 | relative viability ([8]; first compound 0.3162 µM): 1.02 | relative viability ([9]; first compound 0.01 µM): 0.922 | relative viability ([9]; first compound 0.03162 µM): 0.928 | relative viability ([9]; first compound 0.3162 µM): 1.01 | relative viability ([10]; first compound 0.01 µM): 0.992 | relative viability ([10]; first compound 0.03162 µM): 1.05 | relative viability ([10]; first compound 0.3162 µM): 0.918 | relative viability ([11]; first compound 0.01 µM): 1.22 | relative viability ([11]; first compound 0.03162 µM): 1.14 | relative viability ([11]; first compound 0.3162 µM): 1.08 | relative viability ([12]; first compound 0.01 µM): 1.49 | relative viability ([12]; first compound 0.03162 µM): 1.09 | relative viability ([12]; first compound 0.3162 µM): 1.02 | relative viability ([13]; first compound 0.01 µM): 1.05 | relative viability ([13]; first compound 0.03162 µM): 1.21 | relative viability ([13]; first compound 0.3162 µM): 1.19 | relative viability ([14]; first compound 0.01 µM): 0.85 | relative viability ([14]; first compound 0.03162 µM): 0.986 | relative viability ([14]; first compound 0.3162 µM): 1.15 | relative viability ([15]; first compound 0.03162 µM): 1.07 | relative viability ([15]; first compound 0.3162 µM): 0.596 | relative viability ([16]; first compound 0.01 µM): 1.04 | relative viability ([16]; first compound 0.03162 µM): 1.05 | relative viability ([16]; first compound 0.3162 µM): 1.04 | relative viability ([17]; first compound 0.03162 µM): 0.96 | relative viability ([17]; first compound 0.3162 µM): 1.04 | relative viability ([18]; first compound 0.01 µM): 0.813 | relative viability ([18]; first compound 0.03162 µM): 0.966 | relative viability ([18]; first compound 0.3162 µM): 0.677 | relative viability ([19]; first compound 0.01 µM): 1.24 | relative viability ([19]; first compound 0.03162 µM): 1.24 | relative viability ([19]; first compound 0.3162 µM): 1.44 | relative viability ([20]; first compound 0.01 µM): 0.988 | relative viability ([20]; first compound 0.03162 µM): 1.01 | relative viability ([20]; first compound 0.3162 µM): 1 | relative viability ([21]; first compound 0.01 µM): 1.15 | relative viability ([21]; first compound 0.03162 µM): 1.06 | relative viability ([21]; first compound 0.3162 µM): 1 | relative viability ([22]; first compound 0.01 µM): 1.1 | relative viability ([22]; first compound 0.03162 µM): 1 | relative viability ([22]; first compound 0.3162 µM): 1.13 | relative viability ([23]; first compound 0.01 µM): 1.09 | relative viability ([23]; first compound 0.03162 µM): 0.877 | relative viability ([23]; first compound 0.3162 µM): 0.852

CC(C)Oc1cc(Nc2nc(N[C@@H](C)c3ccc(F)cn3)ncc2Cl)n[nH]1 [AZ23] + CS(=O)(=O)N1CCN(Cc2cc3nc(-c4cccc5[nH]ncc45)nc(N4CCOCC4)c3s2)CC1 [Pictilisib] (partner 1 µM)
relative viability ([1]; first compound 0.01 µM): 0.685 | relative viability ([1]; first compound 0.03162 µM): 0.683 | relative viability ([1]; first compound 0.3162 µM): 0.69 | relative viability ([2]; first compound 0.01 µM): 0.407 | relative viability ([2]; first compound 0.03162 µM): 0.417 | relative viability ([2]; first compound 0.3162 µM): 0.383 | relative viability ([3]; first compound 0.01 µM): 0.658 | relative viability ([3]; first compound 0.03162 µM): 1.18 | relative viability ([3]; first compound 0.3162 µM): 0.661 | relative viability ([4]; first compound 0.01 µM): 0.258 | relative viability ([4]; first compound 0.03162 µM): 0.349 | relative viability ([5]; first compound 0.01 µM): 0.484 | relative viability ([5]; first compound 0.03162 µM): 0.519 | relative viability ([5]; first compound 0.3162 µM): 0.494 | relative viability ([6]; first compound 0.01 µM): 0.192 | relative viability ([6]; first compound 0.03162 µM): 0.195 | relative viability ([6]; first compound 0.3162 µM): 0.195 | relative viability ([7]; first compound 0.01 µM): 1.11 | relative viability ([7]; first compound 0.03162 µM): 0.978 | relative viability ([7]; first compound 0.3162 µM): 1.11 | relative viability ([8]; first compound 0.01 µM): 0.386 | relative viability ([8]; first compound 0.03162 µM): 0.574 | relative viability ([8]; first compound 0.3162 µM): 0.357 | relative viability ([9]; first compound 0.01 µM): 0.134 | relative viability ([9]; first compound 0.03162 µM): 0.225 | relative viability ([9]; first compound 0.3162 µM): 0.157 | relative viability ([10]; first compound 0.01 µM): 0.51 | relative viability ([10]; first compound 0.03162 µM): 0.559 | relative viability ([10]; first compound 0.3162 µM): 0.417 | relative viability ([11]; first compound 0.01 µM): 0.988 | relative viability ([11]; first compound 0.03162 µM): 0.979 | relative viability ([11]; first compound 0.3162 µM): 0.945 | relative viability ([12]; first compound 0.01 µM): 0.867 | relative viability ([12]; first compound 0.03162 µM): 1.06 | relative viability ([12]; first compound 0.3162 µM): 0.964 | relative viability ([13]; first compound 0.01 µM): 0.485 | relative viability ([13]; first compound 0.03162 µM): 0.514 | relative viability ([13]; first compound 0.3162 µM): 0.452 | relative viability ([14]; first compound 0.01 µM): 0.525 | relative viability ([14]; first compound 0.03162 µM): 0.681 | relative viability ([14]; first compound 0.3162 µM): 0.543 | relative viability ([15]; first compound 0.03162 µM): 0.543 | relative viability ([15]; first compound 0.3162 µM): 0.448 | relative viability ([16]; first compound 0.01 µM): 0.412 | relative viability ([16]; first compound 0.03162 µM): 0.575 | relative viability ([16]; first compound 0.3162 µM): 0.429 | relative viability ([17]; first compound 0.01 µM): 0.477 | relative viability ([17]; first compound 0.03162 µM): 0.497 | relative viability ([17]; first compound 0.3162 µM): 0.561 | relative viability ([18]; first compound 0.01 µM): 0.327 | relative viability ([18]; first compound 0.03162 µM): 0.309 | relative viability ([18]; first compound 0.3162 µM): 0.304 | relative viability ([19]; first compound 0.03162 µM): 0.5 | relative viability ([19]; first compound 0.3162 µM): 0.447 | relative viability ([20]; first compound 0.01 µM): 0.841 | relative viability ([20]; first compound 0.03162 µM): 0.869 | relative viability ([20]; first compound 0.3162 µM): 1.1 | relative viability ([21]; first compound 0.01 µM): 0.402 | relative viability ([21]; first compound 0.03162 µM): 0.446 | relative viability ([21]; first compound 0.3162 µM): 0.423 | relative viability ([22]; first compound 0.01 µM): 0.757 | relative viability ([22]; first compound 0.03162 µM): 0.689 | relative viability ([22]; first compound 0.3162 µM): 0.739 | relative viability ([23]; first compound 0.01 µM): 0.546 | relative viability ([23]; first compound 0.03162 µM): 0.507 | relative viability ([23]; first compound 0.3162 µM): 0.502

Source: the supplement of paper PMC10307832
